Reference: patent EP2587940B1, “PARTICLES COMPRISING HYDROPHOBIC POLYMER AND HYDROPHOBIC PHENOLIC COMPOUND” (Unilever N.V., priority 2010, dated 2012)

How the values were obtained:
[1] = system: acetylated LDL metabolism; conditions: Whitman S.C. et al. 2005; cited from earlier work
[2] = Photostability under UV irradiation; type: physicochemical; conditions: UV irradiation 302 nm
From the text: (§1) Enhanced stability of colloidal dispersion of curcumin-zein to various pH and UV irradiation was studied as follows.

[3] = Stability in simulated gastro-intestinal conditions (dissolution test, gastric and intestinal phase); type: physicochemical; conditions: gastric phase pH 2 with pepsin in first 2 hours
Experimental: To study the stability of the colloidal dispersion of particles according to the invention in simulated gastro-intestinal conditions, a dissolution test was carried out in simulated gastric and intestinal phases using following conditions. This test indicates whether the particles are suitable to be used as a delivery system for phenolic compounds to the human body. Zein-curcumin particles (5:1 wt/wt) were used. • For gastric phase: Water with 0.05% Tween , pH 2 in first 2 hours with pepsin • For intestinal phase: pH adjusted to 6.8 and bile salts and pancreatin added to the medium. • Sampling point: (5, 15, 30, 60, 90, 120 and 180 mins).

[4] = Water dispersibility, USP 2 dissolution test; type: physicochemical; conditions: deionised water with 0.05% Tween 80
Experimental: The aim of the experiment is to see how well formulated curcumin disperses in aqueous media. […] Curcumin determined included both free as well as complexed or encapsulated curcumin. […] Samples were withdrawn at specified time interval (5, 15, 30, 60, 90, 120 and 180 mins) and analysed using UV-vis spectroscopic method.

pH stability in buffers = type: physicochemical; conditions: for non-degraded: after 6 hours, 20 microgram per mL curcumin
From the text: as §1

COc1ccc(-c2cc(=O)c3c(OC)c(OC)c(OC)c(OC)c3o2)cc1OC [nobiletin]
inhibited acetylated LDL metabolism [1]: 50-72%

COc1cc(/C=C/C(=O)CC(=O)/C=C/c2ccc(O)c(OC)c2)ccc1O [pure curcumin, Curcumin]
unchanged curcumin level ([2]; 0 min): 100% | unchanged curcumin level ([2]; 5 min): 93.6% | unchanged curcumin level ([2]; 10 min): 88.4% | unchanged curcumin level ([2]; 15 min): 66.7% | unchanged curcumin level ([2]; 30 min): 59.6% | release ([3]; 0 min, then intestinal phase pH 6.8 with bile salts and pancreatin): 0% | release ([3]; 5 min, then intestinal phase pH 6.8): 18.0 ± 2.0% | release ([3]; 15 min, then intestinal phase pH 6.8): 18.3 ± 0.3% | release ([3]; 30 min, then intestinal phase pH 6.8): 20.9 ± 2.2% | release ([3]; 60 min, then intestinal phase pH 6.8): 21.7 ± 1.9% | release ([3]; 90 min, then intestinal phase pH 6.8): 38.1 ± 0.5% | release ([3]; 120 min, then intestinal phase pH 6.8): 36.9 ± 1.4% | release ([3]; 150 min, then intestinal phase pH 6.8): 37.6 ± 2.3% | release ([3]; 180 min, then intestinal phase pH 6.8): 37.0 ± 1.2% | cumulative release ([4]; 0 min): 0% | cumulative release ([4]; 15 min): 18.1 ± 1.3% | cumulative release ([4]; 30 min): 19.1 ± 1.4% | cumulative release ([4]; 60 min): 22.6 ± 1.7% | cumulative release ([4]; 90 min): 25.7 ± 1.9% | cumulative release ([4]; 120 min): 27.8 ± 2.0% | cumulative release ([4]; 180 min): 32.8 ± 2.7% | non-degraded (pH stability in buffers; pH 1.2): 56.0% | non-degraded (pH stability in buffers; pH 4.5): 69.7% | non-degraded (pH stability in buffers; pH 6.7): 67.6% | non-degraded (pH stability in buffers; pH 7.4): 66.6% | colour (pH stability in buffers; pH 9.0): turned red in colour | non-degraded (pH stability in buffers; pH 9.0): 52.9%
